Source: patent US20230135729A1, “COMPOUND WITH ANTI-SPORE ACTIVITY AND PHARMACEUTICAL COMPOSITION THEREOF” (priority 2020, published 2023)
In brackets after ≈: the same amount, converted by molar mass.

What was measured:
Assay type in all cases: cell-based
[1] = test system: spores of ATCC 630 strain; assay: Inhibition of germination of C. difficile spores (MIC), strain ATCC 630; conditions: Clostridioides difficile, ATCC630, 1 h; strain 630; sodium taurocholate as germinant, BHIS medium, 37° C., OD580 for 60 min; read-out: MIC (minimum concentration that completely inhibits spore germination)
Summary of the method: (§1)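 Spores heat-activated for 30 min at 65° C and washed, then preincubated with compound (10 mM DMSO stock) in BHIS at 37° C. Germination was triggered with sodium taurocholate, and OD580 was read each minute for 60 min. Inhibition = 100% − germination rate, from final vs initial OD relative to germinant-only controls.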

[2] = test system: spores of ATCC 43255 strain; assay: Inhibition of germination of C. difficile spores (MIC), strain ATCC 43255; conditions: Clostridioides difficile, ATCC43255, 1 h; strain 43255; sodium taurocholate as germinant, BHIS medium, 37° C., OD580 for 60 min; read-out: MIC (minimum concentration that completely inhibits spore germination)
Summary of the method: as §1

[3] = test system: spores of ATCC BBA1870 strain; assay: Inhibition of germination of C. difficile spores (MIC), strain ATCC BBA1870; conditions: Clostridioides difficile, ATCCBBA1870STRAIN, 1 h; strain 1870; sodium taurocholate as germinant, BHIS medium, 37° C., OD580 for 60 min; read-out: MIC (minimum concentration that completely inhibits spore germination)
Summary of the method: as §1

[4] = test system: various C. difficile spores; assay: Inhibition of germination of C. difficile spores, summary over the strains; conditions: Clostridioides difficile; Table 1, all strains
Method: According to a method disclosed in “The Journal of Infectious Diseases. 2013; 207: 1498-504”, spores of ATCC BBA1870, ATCC 43255 and ATCC 630 strains were obtained by culture and purification, and stored at 4° C.
Spore preparation: the C. difficile spores stored at 4° C. were heat-activated for 30 min at 65° C., centrifuged at 9,400 g for 2 min, and washed three times to remove any self-germinating spores.
Control drug: three cholic acid derivatives, a compound CamSA, a compound 20β (prepared by the method of “Journal of Medicinal Chemistry. 2017, 60 (8): 3451-3471”), and a compound 12a (prepared by the method of “Journal of Medicinal Chemistry. 2018, 61, 6759-6778”), were used as control drugs.
Compound preparation: the compound of the present disclosure, and the positive control drugs CamSA, 20β, and 12a were dissolved in DMSO, to prepare a stock solution with a concentration of 10 mM (prepared for immediate use).
The detection was conducted in a 96-well cell culture plate at a constant temperature of 37° C.; a final volume of each well of the 96-well plate was […] and a buffer was the BHIS medium; 150 μl of spores and drugs were added to the well in advance, and 50 μl of 4 mg/ml sodium taurocholate was added; OD580 was detected every 1 min immediately using a microplate reader, for continuously 60 min. A germination agent control group and a non-germination group were set up; after the detection, a final OD value of each well was compared with an initial value, and compared with the germination agent group to calculate a germination rate and an inhibition rate. A formula for the germination rate was:
Inhibition rate=100%−germination rate.

Row | Compound | MIC [1] [µM] | MIC [2] [µM] | MIC [3] [µM] | MIC [4] [µM]
1 | CCC(NC(=O)C[C@@H](C)[C@H]1CC[C@H]2[C@@H]3C(=O)C[C@@H]4CC(=O)CC[C@]4(C)[C@H]3CC[C@]12C)c1cccs1 (stereo partly drawn) [Compound I-35] | 0.5 (≈ 0.249 µg/mL) | 0.5 (≈ 0.249 µg/mL) | 0.5 (≈ 0.249 µg/mL) | ≤ 1
2 | CC[C@@H](NC(=O)C[C@@H](C)[C@H]1CC[C@H]2[C@@H]3C(=O)C[C@@H]4CC(=O)CC[C@]4(C)[C@H]3CC[C@]12C)c1cccs1 [Compound I-37] | 0.25 (≈ 0.124 µg/mL) | 0.25 (≈ 0.124 µg/mL) | 0.25 (≈ 0.124 µg/mL) | ≤ 1
3 | CCCC(NC(=O)C[C@@H](C)[C@H]1CC[C@H]2[C@@H]3C(=O)C[C@@H]4CC(=O)CC[C@]4(C)[C@H]3CC[C@]12C)c1cccs1 (stereo partly drawn) [Compound I-41] | 0.5 (≈ 0.256 µg/mL) | 0.5 (≈ 0.256 µg/mL) | 0.5 (≈ 0.256 µg/mL) | ≤ 1
4 | C[C@H](CC(=O)NC(c1cccs1)C1CC1)[C@H]1CC[C@H]2[C@@H]3C(=O)C[C@@H]4CC(=O)CC[C@]4(C)[C@H]3CC[C@]12C (stereo partly drawn) [Compound I-48] | 0.5 (≈ 0.255 µg/mL) | 0.5 (≈ 0.255 µg/mL) | 0.5 (≈ 0.255 µg/mL) | ≤ 1
5 | C[C@H](CC(=O)N[C@@H](c1cccs1)C1CC1)[C@H]1CC[C@H]2[C@@H]3C(=O)C[C@@H]4CC(=O)CC[C@]4(C)[C@H]3CC[C@]12C [Compound I-50] | 0.25 (≈ 0.127 µg/mL) | 0.25 (≈ 0.127 µg/mL) | 0.25 (≈ 0.127 µg/mL) | ≤ 1
6 | C[C@H](CC(=O)NC(c1ccc(Cl)s1)C1CC1)[C@H]1CC[C@H]2[C@@H]3C(=O)C[C@@H]4CC(=O)CC[C@]4(C)[C@H]3CC[C@]12C (stereo partly drawn) [Compound I-51] | 0.5 (≈ 0.272 µg/mL) | 0.5 (≈ 0.272 µg/mL) | 0.5 (≈ 0.272 µg/mL) | ≤ 1
